Data from the supplement of paper PMC10307832.

Legend:
Experiment in all cases: relative viability (nuclei count vs DMSO), 5 days (fraction); higher = more cells survive
Carfilzomib + OSI-027 = compound: CC(C)C[C@H](NC(=O)[C@H](CCc1ccccc1)NC(=O)CN1CCOCC1)C(=O)N[C@@H](Cc1ccccc1)C(=O)N[C@@H](CC(C)C)C(=O)[C@@]1(C)CO1 [Carfilzomib] + COc1cccc2cc(-c3nc([C@H]4CC[C@H](C(=O)O)CC4)n4ncnc(N)c34)[nH]c12 [OSI-027] (partner 0.5 µM)
Method in brief: (§1)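 Nuclei were stained with Hoechst during a one-step fixation (final 0.05% Triton X-100, 1% formaldehyde, 1 ug/ml Hoechst) carried out 5 days after dosing, then counted on 4× images. The cells, lung cancer lines in 1536-well plates, had been dosed by pin tool the day after seeding with one drug alone or a fixed anchor-drug dose plus five library-drug doses (not always all listed) in √10 steps. Relative viability is the nuclei count in treated wells divided by that in vehicle wells, and each value is the median of duplicate plates.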

Crizotinib + Pemetrexed = compound: C[C@@H](Oc1cc(-c2cnn(C3CCNCC3)c2)cnc1N)c1c(Cl)ccc(F)c1Cl [Crizotinib] + Nc1nc2[nH]cc(CCc3ccc(C(=O)N[C@@H](CCC(=O)O)C(=O)O)cc3)c2c(=O)[nH]1 [Pemetrexed] (partner 0.2 µM)
Method in brief: as §1

Olaparib + Trametinib = compound: O=C(c1cc(Cc2n[nH]c(=O)c3ccccc23)ccc1F)N1CCN(C(=O)C2CC2)CC1 [Olaparib] + CC(=O)Nc1cccc(-n2c(=O)n(C3CC3)c(=O)c3c(Nc4ccc(I)cc4F)n(C)c(=O)c(C)c32)c1 [Trametinib] (partner 0.02 µM)
Method in brief: as §1

Olaparib + Foretinib = compound: O=C(c1cc(Cc2n[nH]c(=O)c3ccccc23)ccc1F)N1CCN(C(=O)C2CC2)CC1 [Olaparib] + COc1cc2c(Oc3ccc(NC(=O)C4(C(=O)Nc5ccc(F)cc5)CC4)cc3F)ccnc2cc1OCCCN1CCOCC1 [Foretinib] (partner 0.25 µM)
Method in brief: as §1

Row | Cell Line | relative viability (Carfilzomib + OSI-027; first compound 0.001 µM) | relative viability (Carfilzomib + OSI-027; first compound 0.003162 µM) | relative viability (Carfilzomib + OSI-027; first compound 0.01 µM) | relative viability (Carfilzomib + OSI-027; first compound 0.03162 µM) | relative viability (Carfilzomib + OSI-027; first compound 0.1 µM) | relative viability (Crizotinib + Pemetrexed; first compound 0.01 µM) | relative viability (Crizotinib + Pemetrexed; first compound 0.03162 µM) | relative viability (Crizotinib + Pemetrexed; first compound 0.1 µM) | relative viability (Crizotinib + Pemetrexed; first compound 0.3162 µM) | relative viability (Crizotinib + Pemetrexed; first compound 1 µM) | relative viability (Olaparib + Trametinib; first compound 0.08 µM) | relative viability (Olaparib + Trametinib; first compound 0.253 µM) | relative viability (Olaparib + Trametinib; first compound 2.53 µM) | relative viability (Olaparib + Trametinib; first compound 8 µM) | relative viability (Olaparib + Foretinib; first compound 0.08 µM) | relative viability (Olaparib + Foretinib; first compound 0.253 µM) | relative viability (Olaparib + Foretinib; first compound 2.53 µM) | relative viability (Olaparib + Foretinib; first compound 8 µM)
1 | NCI-H1915 | 0.596 | 0.654 | 0.59 | 0.457 | 0.0943 | 0.455 | 0.431 | 0.506 | 0.455 | 0.482 | 0.278 | 0.285 | 0.261 | 0.206 | 1.06 | 1.02 | 0.717 | 0.604
2 | NCI-H2342 | 0.663 | 0.621 | 0.723 | 0.632 | 0.495 | 0.761 | 0.792 | 0.737 | 0.636 | 0.744 | 0.8 | 0.871 | 0.802 | 0.742 | 1.18 | 1.18 | 0.977 | 0.948
3 | LOU-NH91 | 0.77 | 0.801 | 0.711 | 0.259 | 0.322 | 0.35 | 0.368 | 0.383 | 0.396 | 0.383 | 0.862 | 0.782 | 0.793 | 0.825 | 0.943 | 0.957 | 0.998 | 0.939
4 | EKVX | 0.689 | 0.754 | 0.834 | 0.601 | 0.315 | 0.362 | 0.414 | 0.404 | 0.383 | 0.327 | 0.425 | 0.427 | 0.313 | 0.362 | 1.03 | 1 | 0.294 | 1.01
5 | SK-LU-1 | 0.36 | 0.362 | 0.399 | 0.102 | 0.138 | 0.887 | 0.911 | 0.815 | 1.02 | 0.922 | 0.515 | 0.402 | 0.496 | 0.417 | 0.91 | 0.657 | 0.748 | 0.526
6 | LXF-289 | 0.818 | 0.9 | 0.749 | 0.163 | 0.0509 | 0.807 | 0.939 | 0.788 | 0.736 | – | 0.737 | 0.674 | 0.771 | 0.847 | 1.06 | 0.91 | 1.07 | 0.983
7 | NCI-H2009 | 0.758 | 0.778 | 0.631 | 0.111 | 0.0867 | 1.02 | 1.05 | 0.974 | 0.957 | 0.989 | 0.275 | 0.283 | 0.315 | 0.267 | 1.35 | 1.16 | 1.17 | 1.06
8 | HCC-827 | 0.796 | 0.829 | 0.872 | 0.746 | 0.511 | 0.268 | 0.183 | 0.267 | 0.274 | 0.261 | 0.52 | 0.508 | 0.498 | 0.478 | 0.959 | 0.959 | 0.956 | 0.797
9 | NCI-H3122 | 1.01 | 1.05 | 1.07 | 0.872 | 0.154 | 0.192 | 0.196 | 0.195 | 0.182 | 0.192 | 0.219 | 0.238 | 0.241 | 0.203 | 0.895 | 0.946 | 0.873 | 0.781
10 | NCI-H2126 | 0.721 | 0.707 | 0.76 | 0.726 | 0.331 | 0.616 | – | 0.68 | 0.659 | 0.724 | 0.527 | 0.55 | 0.584 | 0.596 | 1.06 | 1.15 | 1.36 | 1.18
11 | HARA | 0.537 | 0.564 | 0.675 | 0.0444 | 0.0712 | 0.222 | 0.242 | 0.257 | 0.183 | 0.236 | 0.882 | 0.66 | 0.732 | 0.632 | 0.97 | 0.807 | 0.951 | 0.695
12 | LC-2-ad | 0.83 | 1.02 | 0.901 | 0.633 | 0.207 | 0.266 | 0.259 | 0.276 | – | 0.302 | 0.877 | 0.819 | 0.894 | 0.809 | 1.05 | 0.816 | 1.01 | 0.889
13 | UMC-11 | 0.503 | 0.474 | 0.496 | 0.426 | 0.211 | 0.864 | 0.76 | 0.732 | 0.814 | 0.841 | 0.651 | 0.644 | 0.59 | 0.376 | 0.893 | 0.959 | 0.784 | 0.484
14 | EMC-BAC-2 | 0.378 | 0.448 | 0.409 | 0.242 | 0.197 | 0.442 | 0.419 | 0.444 | – | 0.448 | 0.971 | 0.844 | 0.932 | 0.806 | 1.05 | 0.998 | 0.953 | 0.655
15 | COR-L 105 | 0.805 | 0.82 | 0.699 | 0.271 | 0.191 | 1.04 | 1.16 | 1 | 1.24 | 1.07 | 0.472 | 0.446 | 0.425 | 0.428 | 1.37 | 0.988 | 0.807 | 0.835
